A word on the EC50: it is the concentration at which the effect is half-maximal.

15 compounds from patent US9447044B2, “Thioaryl derivatives as GPR120 agonists” (LG LIFE SCIENCES LTD., priority 2012, dated 2016) can be followed below.

Each structure is given as a SMILES string.

The target in the assay is T1, hGPR120 (Homo sapiens, UniProt Q5NUL3).
T1 construct: expressed in transfected cells; host or cells: CHO-K1
T1 sequence (Q5NUL3 1-361): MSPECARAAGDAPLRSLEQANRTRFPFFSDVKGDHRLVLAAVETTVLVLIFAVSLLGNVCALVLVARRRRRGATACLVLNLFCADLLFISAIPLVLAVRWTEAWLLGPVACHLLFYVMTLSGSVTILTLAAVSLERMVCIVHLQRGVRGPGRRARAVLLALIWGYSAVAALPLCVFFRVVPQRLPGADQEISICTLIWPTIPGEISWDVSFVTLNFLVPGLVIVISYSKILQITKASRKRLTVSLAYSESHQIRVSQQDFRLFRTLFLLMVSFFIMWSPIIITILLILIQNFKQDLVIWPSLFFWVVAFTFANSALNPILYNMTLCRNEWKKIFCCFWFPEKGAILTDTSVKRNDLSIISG
Nature of the assay: Measurement of activity of GPR120 agonist (cell-based assay), calcium fluorescence. As to conditions: CHO-K1 cells expressing Ga16 and hGPR120; Calcium 5 dye fluorescence; activity class. As for the experimental part: CHO-K1 cells expressing Ga16 and hGPR120 were dispensed into each well of a 96-well plate (3×10^4 cells/100 μl/well) and then incubated in 5% CO2, 37° C. incubator for 18 hours. Each well was treated with 100 μl of Calcium 5 dye (Molecular Devices) solution including 2% DMSO and then incubated in 5% CO2, 37° C. incubator for 1 hour. Serially diluted GPR120 agonists were prepared to a final concentration of 0.5% DMSO in a 96-well plate. Each well was treated with 50 μl of the agonist compounds using Plexstation II, and then fluorescence was measured at Ex 485 nm, Em 525 nm.
Fluorescence increased by the serially diluted GPR120 agonists is calculated as a relative percent (%) value based on the fluorescence represented by the treatment of 0.1% DMSO only. […] The calculation of measurement was carried out by using statistical software (Prizm).
Activity is denoted based on the following criteria: A=>20 μM, B=[…], C=2˜0.2 μM, D=<0.2 μM
Take `CCC(C)Sc1cccc(COc2c(F)cc(CCC(=O)O)cc2F)n1` (stereo not drawn) [Example 34, 3-[4-(6-sec-butylsulfanyl-pyridin-2-ylmethoxy)-3,5-difluoro-phenyl]-propionic acid]: the EC50 was below 200 nM. The same measure for `O=C(O)C1CC1c1cc(F)c(OCc2cccc(SC3CCCC3)n2)c(F)c1` (stereo not drawn) [Example 35, 2-[4-(6-cyclopentylsulfanyl-pyridin-2-ylmethoxy)-3,5-difluoro-phenyl]-cyclopropane carboxylic acid]: below 200 nM; for `O=C(O)C1CC1c1cc(F)c(OCc2cccnc2SC2CCC2)c(F)c1` (stereo not drawn) [Example 36, 2-[4-(2-cyclobutylsulfanyl-pyridin-3-ylmethoxy)-3,5-difluoro-phenyl]-cyclopropane carboxylic acid]: below 200 nM; for `CC(Cc1ccc(OCc2cccnc2SC2CCC2)c(F)c1)C(=O)O` (stereo not drawn) [Example 37, 3-[4-(2-cyclobutylsulfanyl-pyridin-3-ylmethoxy)-3-fluoro-phenyl]-2-methyl-propionic acid]: below 200 nM.

Turning to `CC(Cc1ccc(OCc2cccnc2SC2CCCC2)c(F)c1)C(=O)O` (stereo not drawn) [Example 38, 3-[4-(2-cyclopentylsulfanyl-pyridin-3-ylmethoxy)-3-fluoro-phenyl]-2-methyl-propionic acid], the EC50 was below 200 nM. `CCC(C)Sc1ncccc1COc1ccc(CC(C)C(=O)O)cc1F` (stereo not drawn) [Example 39, 3-[4-(2-sec-butylsulfanyl-pyridin-3-ylmethoxy)-3-fluoro-phenyl]-2-methyl-propionic acid]: the EC50 was below 200 nM. `CC(Cc1ccc(OCc2cccnc2SCC2CC2)c(F)c1)C(=O)O` (stereo not drawn) [Example 40, 3-[4-(2-cyclopropylmethylsulfanyl-pyridin-3-ylmethoxy)-3-fluoro-phenyl]-2-methyl-propionic acid]: the EC50 was below 200 nM.

In the case of `CC(C)Sc1ncccc1COc1c(F)cc(CC(C)C(=O)O)cc1F` (stereo not drawn) [Example 41, 3-[3,5-difluoro-4-(2-isopropylsulfanyl-pyridin-3-ylmethoxy)-phenyl]-2-methyl-propionic acid], the EC50 was below 200 nM. The same measure for `CCC(C)Sc1ncccc1COc1c(F)cc(CC(C)C(=O)O)cc1F` (stereo not drawn) [Example 42, 3-[4-(2-sec-butylsulfanyl-pyridin-3-ylmethoxy)-3,5-difluoro-phenyl]-2-methyl-propionic acid]: 200 to 2000 nM; for `COc1ccc(COc2c(F)cc(CCC(=O)O)cc2F)c(SC(C)C)n1` [Example 43, 3-[3,5-difluoro-4-(2-isopropylsulfanyl-6-methoxy-pyridin-3-ylmethoxy)-phenyl]-propionic acid]: below 200 nM; for `CC(Cc1cc(F)c(OCc2cccc(SC3CCCC3)n2)c(F)c1)C(=O)O` (stereo not drawn) [Example 44, 3-[4-(6-cyclopentylsulfanyl-pyridin-2-ylmethoxy)-3,5-difluoro-phenyl]-2-methyl-propionic acid]: below 200 nM. The same measure for `Cc1ccc(COc2c(F)cc(CCC(=O)O)cc2F)c(SC2CCCC2)n1` [Example 45, 3-[4-(2-cyclopentylsulfanyl-6-methyl-pyridin-3-ylmethoxy)-3,5-difluoro-phenyl]-propionic acid]: below 200 nM; for `CC(Cc1cc(F)c(OCc2cccc(SC3CCC3)n2)c(F)c1)C(=O)O` (stereo not drawn) [Example 46, 3-[4-(6-cyclobutylsulfanyl-pyridin-2-ylmethoxy)-3,5-difluoro-phenyl]-2-methyl-propionic acid]: below 200 nM; for `CC(Cc1cc(F)c(OCc2cccnc2SC2CCCC2)c(F)c1)C(=O)O` (stereo not drawn) [Example 47, 3-[4-(2-cyclopentylsulfanyl-pyridin-3-ylmethoxy)-3,5-difluoro-phenyl]-2-methyl-propionic acid]: below 200 nM. The same measure for `CCC(C)Sc1cccc(COc2c(F)cc(CC(C)C(=O)O)cc2F)n1` (stereo not drawn) [Example 48, 3-[4-(6-sec-butylsulfanyl-pyridin-2-ylmethoxy)-3,5-difluoro-phenyl]-2-methyl-propionic acid]: 200 to 2000 nM.
